Reference: PMC12867150, “A fungi-derived cyclic peptide enhances Th9-mediated antitumor immunity by targeting ZAP70 and SREBP1” (The Journal of Clinical Investigation, 2025)

Experiments:
[1] = system: B16-OVA melanoma; test: Adoptive transfer of OT-II Th9 cells with anti-PD-1, B16-OVA tumor growth (Figure 2I); type: in vivo, C57BL/6 mice; details: EpA-Th9 cells with anti-PD-1; result in words
Source text: (A) Schematic of the therapeutic model. C57BL/6 mice were subcutaneously inoculated with B16-OVA melanoma cells (5 × 10^5) and preconditioned with cyclophosphamide (CTX) on day 4. […] (B–G) Flow-cytometric analysis of transferred CD45.1^+ OT-II Th9 cells (B and C) and endogenous CD4^+ (D and E) and CD8^+ T cells (F and G) in spleens and tumors, showing frequencies and absolute numbers (n = 4 mice per group). (H) Tumor growth curves in B16-OVA–bearing C57BL/6 or β2-microglobulin–deficient (β2m-KO) mice following transfer of control or EpA-treated OT-II Th9 cells (n = 4 mice per group). (I) C57BL/6 mice bearing B16-OVA tumors were treated with control or EpA-induced OT-II Th9 cells (2 × 10^6, i.v., day 5), followed by anti–PD-1 antibody (200 μg, i.p.) on day 7, and (100 μg, i.p.) on day 10 and 12. Tumor growth is shown with individual trajectories (n = 6 mice per group). Statistical analysis was performed using 2-tailed unpaired Student’s t test ([…], B–G) or 1-way ANOVA with Tukey’s post hoc test (H and I). All data are presented as the mean ± SEM. *P < 0.05, **P < 0.01, ***P < 0.001. Schematic in A created using BioRender (https://Biorender.com).
Finally, we examined whether the CD8^+ T cell–supporting capacity of EpA-Th9 cells could synergize with immune checkpoint blockade (ICB) therapy. […]

[2] = system: MEK1/2 and ERK1/2; test: Immunoblot of total and phosphorylated MEK1/2 and ERK1/2 (Figure 5G); type: cell-based, mouse; details: result in words
Description: Detailed lysis conditions, SDS–PAGE and transfer procedures, primary/secondary antibodies (including clones and catalog numbers), molecular weight markers, ECL detection, and ImageJ (NIH) quantification are described in Supplemental Methods.
MH9A4, Biolegend, Cat. No. 507605, PE/Cy7, clone MH9A4, Biolegend, Cat. No. […]
clone Mab11, Biolegend, Cat. No. 502908), Perforin (APC, clone dG9, Biolegend, Cat.
Flow cytometric acquisition was performed using a BD Fortessa or Cytek Aurora cytometer. Data were analyzed with FlowJo software (v10.8.1 or newer). Fluorescence compensation, isotype-matched controls, and fluorescence-minus-one (FMO) controls were applied as appropriate for multicolor panel validation.
Cells were washed twice with PBS and lysed in 1 × lysis buffer (NCM, Cat. No.
WB3100) supplemented with a protease inhibitor cocktail (Solarbio, Cat. No. P1260).
Protein lysates were separated by SDS-polyacrylamide gel electrophoresis (SDS-PA G E ; YEASEN, Cat. No. 20325ES62) and transferred to PVDF membranes for […]
Membranes were probed with the following primary antibodies: ERK1/2 (clone […]
BioLegend, Cat. No. 369502), MEK1/2 (clone L38C12, Cell Signaling Technology, Cat.
No. 4694S), phospho -MEK1/2 (clone 41G9, Cell Signaling Technology, Cat. No. […]
(Proteintech, Cat. No. 10745 -1-AP), Total Akt (Cell Signaling Technolo gy, Cat. No. […]

## anteiso-C15 Leu7 surfactin [EpA]
[1]
  response to PD-1 blockade: significantly enhanced the therapeutic response to PD-1 blockade
[2]
  MEK and ERK phosphorylation: increased phosphorylation of MEK and ERK
